Assay results as given in ChEMBL document CHEMBL1201862, “PubChem BioAssay data set” (2004).
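Grown in 96-well plates, cells were treated for 48 hours with each compound at five concentrations. Insufficient inhibition: endpoint recorded as highest concentration tested. At the GI50, growth is halved.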 Activity calls are given as the source filed them. No stated cut-off is given here; in the data, active = GI50 up to about 1.1 µM and inactive = higher.

Key:
Assay in all cases: inhibition of tumour cell growth, NCI panel, 48 h
[1] = system: OVCAR-4
[2] = system: BT-549
[3] = system: 786-0
[4] = system: HCT-15
[5] = system: A498
[6] = system: A549
[7] = system: COLO 205
[8] = system: NCI-H522
[9] = system: RPMI-8226
[10] = system: OVCAR-3
[11] = system: U-251
[12] = system: SR
[13] = system: KM12
[14] = system: SF-295
[15] = system: HCT-116
[16] = system: HCC 2998
[17] = system: DU-145
[18] = system: Malme-3M
[19] = system: MCF7
[20] = system: PC-3
[21] = system: NCI-H23
[22] = system: SK-MEL-5
[23] = system: UO-31
[24] = system: IGROV-1
[25] = system: HL-60
[26] = system: SNB-19
[27] = system: K562
[28] = system: MOLT-4
[29] = system: SK-MEL-2
[30] = system: MDA-MB-231
[31] = system: NCI-H460
[32] = system: M14
[33] = system: UACC-257
[34] = system: OVCAR-8
[35] = system: SK-OV-3
[36] = system: OVCAR-5
[37] = system: HOP-62
[38] = system: HT-29
[39] = system: MDA-MB-435
[40] = system: SN12C
[41] = system: RXF 393
[42] = system: Hs-578T
[43] = system: HOP-92
[44] = system: EKVX
[45] = system: UACC-62
[46] = system: NCI-H226
[47] = system: SK-MEL-28
[48] = system: SF-539
[49] = system: TK-10
[50] = system: MDA-N
[51] = system: CAKI-1
[52] = system: SF-268
[53] = system: NCI/ADR-RES
[54] = system: T47D
[55] = system: CCRF-CEM
[56] = system: ACHN
[57] = system: SW-620
[58] = system: SNB-75
[59] = system: LOX IMVI

Measured: GI50

N#CC(/N=N/c1ccccc1)c1nc2ccccc2o1 (stereo unspecified)
inactive: [1] 11.2 µM | [2] 20.7 µM | [3] 21.8 µM | [5] 76.9 µM | [6] 27.4 µM | [7] 19.3 µM | [8] 27.2 µM | [9] 23.6 µM | [10] 25.4 µM | [11] 22.4 µM | [12] 36.8 µM | [13] 49.7 µM | [14] 17.4 µM | [15] 21.7 µM | [16] > 100 µM | [17] 26.5 µM | [18] 55.8 µM | [19] 59.3 µM | [20] 29.5 µM | [21] 18.6 µM | [22] 86.9 µM | [23] 56.6 µM | [24] 16.1 µM | [25] > 100 µM | [26] 30.7 µM | [27] 45.1 µM | [28] 49.4 µM | [29] 25.4 µM | [30] 20.8 µM | [31] 96.4 µM | [32] 44.8 µM | [33] > 100 µM | [34] 24.5 µM | [35] 23.7 µM | [36] 56.5 µM | [37] 20.3 µM | [38] 61.4 µM | [39] > 100 µM | [40] 83.4 µM | [41] 22.6 µM | [42] 22.3 µM | [43] 15 µM | [44] 20.2 µM | [45] 37.7 µM | [46] 35.7 µM | [47] > 100 µM | [48] 14.7 µM | [49] 24.5 µM | [50] 95.7 µM | [51] 31.9 µM | [52] 22.2 µM | [53] 23.8 µM | [54] 8.13 µM | [55] 34.6 µM | [56] 19.3 µM
> 100 µM: [4]

O=[N+]([O-])c1nccn1CC(O)CN1CCCCC1 (stereo unspecified) [PIMONIDAZOLE]
> 100 µM: [4]
inactive: [1] > 100 µM | [2] > 100 µM | [3] > 100 µM | [5] > 100 µM | [6] > 100 µM | [7] > 100 µM | [8] > 100 µM | [9] > 100 µM | [10] > 100 µM | [11] > 100 µM | [12] > 100 µM | [13] > 100 µM | [14] > 100 µM | [15] > 100 µM | [16] > 100 µM | [17] > 100 µM | [18] > 100 µM | [19] > 100 µM | [20] > 100 µM | [21] > 100 µM | [22] > 100 µM | [23] > 100 µM | [24] > 100 µM | [25] > 100 µM | [26] > 100 µM | [27] > 100 µM | [57] > 100 µM | [28] > 100 µM | [29] > 100 µM | [30] > 100 µM | [31] > 100 µM | [32] > 100 µM | [33] > 100 µM | [34] > 100 µM | [35] > 100 µM | [36] > 100 µM | [37] > 100 µM | [38] > 100 µM | [39] > 100 µM | [40] > 100 µM | [41] > 100 µM | [58] > 100 µM | [59] > 100 µM | [42] > 100 µM | [43] > 100 µM | [44] > 100 µM | [45] > 100 µM | [46] > 100 µM | [47] > 100 µM | [48] > 100 µM | [49] > 100 µM | [50] > 100 µM | [51] > 100 µM | [52] > 100 µM | [53] > 100 µM | [54] > 100 µM | [55] > 100 µM | [56] > 100 µM

N#CC1(O)CCCCCCCCCCC1
> 100 µM: [4]
inactive: [1] > 100 µM | [2] > 100 µM | [3] > 100 µM | [5] > 100 µM | [6] > 100 µM | [7] > 100 µM | [8] 48.8 µM | [9] > 100 µM | [10] > 100 µM | [11] > 100 µM | [12] > 100 µM | [13] > 100 µM | [14] > 100 µM | [15] > 100 µM | [16] > 100 µM | [17] > 100 µM | [18] > 100 µM | [19] > 100 µM | [20] > 100 µM | [21] > 100 µM | [22] > 100 µM | [23] > 100 µM | [24] > 100 µM | [25] > 100 µM | [26] > 100 µM | [27] > 100 µM | [57] > 100 µM | [28] > 100 µM | [29] > 100 µM | [30] > 100 µM | [31] > 100 µM | [32] > 100 µM | [33] > 100 µM | [34] > 100 µM | [35] > 100 µM | [36] > 100 µM | [37] > 100 µM | [38] > 100 µM | [39] > 100 µM | [40] > 100 µM | [41] > 100 µM | [59] > 100 µM | [42] > 100 µM | [43] > 100 µM | [44] > 100 µM | [45] > 100 µM | [46] > 100 µM | [47] > 100 µM | [48] > 100 µM | [49] > 100 µM | [50] > 100 µM | [51] > 100 µM | [52] > 100 µM | [53] > 100 µM | [54] > 100 µM | [55] > 100 µM | [56] > 100 µM

CC1=C/C(=N\NC(N)=S)C(C(O)(C(F)(F)F)C(F)(F)F)C(C)(C)C1 (stereo unspecified)
> 10 µM: [4]
inactive: [1] > 10 µM | [2] > 10 µM | [3] > 10 µM | [5] > 10 µM | [6] > 10 µM | [7] > 10 µM | [8] > 10 µM | [9] > 10 µM | [10] > 10 µM | [11] > 10 µM | [12] > 10 µM | [13] > 10 µM | [14] > 10 µM | [15] > 10 µM | [16] > 10 µM | [17] > 10 µM | [18] > 10 µM | [19] > 10 µM | [20] > 10 µM | [21] > 10 µM | [22] > 10 µM | [24] > 10 µM | [25] > 10 µM | [26] > 10 µM | [27] > 10 µM | [57] > 10 µM | [28] > 10 µM | [29] > 10 µM | [30] > 10 µM | [31] > 10 µM | [32] > 10 µM | [33] > 10 µM | [34] > 10 µM | [35] > 10 µM | [36] > 10 µM | [37] > 10 µM | [38] > 10 µM | [39] > 10 µM | [40] > 10 µM | [41] > 10 µM | [58] > 10 µM | [59] > 10 µM | [42] > 10 µM | [43] > 10 µM | [44] > 10 µM | [45] > 10 µM | [46] > 10 µM | [47] > 10 µM | [48] > 10 µM | [49] > 10 µM | [50] > 10 µM | [51] > 10 µM | [52] > 10 µM | [53] > 10 µM | [54] > 10 µM | [55] > 10 µM | [56] > 10 µM
